Here are results for two molecules from article PMC12530851, “Design, synthesis, and apoptotic antiproliferative activity of novel dihydropyrimidine-5-carbonitrile/1,2,4-oxadiazole hybrids as dual EGFR/VEGFR-2 inhibitors endowed with antioxidant activity” (RSC Advances, 2025).

Broadly, the viability is a read-out of living cells in per cent, often relative to untreated cells. Lower therefore signals a greater loss of cells. The term IC50 denotes the point on the concentration scale where inhibition reaches its midpoint. By GI50 is commonly meant the concentration at which growth is held to half of that of the control. A higher GI50 goes with lower sensitivity of the cells.

The nature of series [1]: Cell viability assay (MTT) on normal MCF-10A cells. The format is cell-based. As to conditions: human, MCF-10A mammary gland epithelial cells (normal cell line), MCF-10A normal cells, four-day incubation. As to the method: The impact of novel compounds 10a–l on the viability of a normal human cell line, specifically human mammary gland epithelial cells (MCF-10A), was assessed to ascertain the safety of the newly synthesized compounds. The MTT test was employed to assess the cell viability of the novel compounds after a four-day incubation with MCF-10A cells.[29,37] Refer to Appendix A for more experimental details.
The effect of new compounds 10a–l on the viability of a normal human cell line, namely human mammary gland epithelial cells (MCF-10A), was evaluated to determine the safety of the newly synthesized compounds.
4.2. Biological evaluation
4.2.1 Cell Viability assay (MTT assay)
MTT assay was performed to investigate the effect of the synthesized compounds on mammary epithelial cells (MCF-10A). The cells were propagated in medium consisting of Ham's F-12 medium/ Dulbecco's modified Eagle's medium (DMEM) (1:1) supplemented with 10% foetal calf serum, 2 mM glutamine, insulin (10 μg/mL), hydrocortisone (500 ng/mL) and epidermal growth factor (20 ng/mL). Trypsin ethylenediamine tetra acetic acid (EDTA) was used to passage the cells after every 2-3 days. 96-well flat-bottomed cell culture plates were used to seed the cells at a density of 10^4 cells mL-1. The medium was aspirated from all the wells of culture plates after 24 h followed by the addition of synthesized compounds (in 200 μL medium to yield a final concentration of 0.1% (v/v) dimethyl sulfoxide) into individual wells of the plates. Four wells were designated to a single compound. The plates were allowed to incubate at 37°C for 96 h. Afterwards, the medium was aspirated and 3-[4,5-dimethylthiazol-2-yl]-2,5-diphenyltetrazolium bromide (MTT) (0.4 mg/mL) in medium was added to each well and subsequently incubated for 3 h. The medium was aspirated and 150 μL dimethyl sulfoxide (DMSO) was added to each well. The plates were vortexed followed by the measurement of absorbance at 540 nm on a microplate reader. […]

The subject of another series is MCF-7 (breast cancer). The series is described as follows: Antiproliferative assay, MCF-7. The class given is cell-based, human. As to conditions: for IC50: Homo sapiens, MCF7, MCF-7 breast cancer cells, read-out: Antiproliferative activity IC50 ± SEM, MCF-7. The source says: (§1) The dose–response experiments established the IC50 values for the new compounds. The given findings were obtained from at least two distinct studies, each comprising three repeats per concentration. Appendix A (SI File) provides experimental details.[38,39]
(§2) The MTT assay[43] was utilized to assess the antiproliferative effects of compounds 10a–l on four human cancer cell lines: HT-29 (colon cancer), Panc-1 (pancreatic cancer), A-549 (lung cancer), and MCF-7 (breast cancer). […]
(§3) 4.2.2. Assay for antiproliferative effect
(§4) To explore the antiproliferative potential of compounds propidium iodide fluorescence assay was performed using different cell lines such as Panc-1 (pancreas cancer cell line), MCF-7 (breast cancer cell line), HT-29 (colon cancer cell line) and A-549 (epithelial cancer cell line), respectively. To calculate the total nuclear DNA, a fluorescent dye (propidium iodide, PI) is used which can attach to the DNA, thus offering a quick and precise technique. PI cannot pass through the cell membrane and its signal intensity can be considered as directly proportional to quantity of cellular DNA. Cells whose cell membranes are damaged or have changed permeability are counted as dead ones. The assay was performed by seeding the cells of different cell lines at a density of 3000-7500 cells/well (in 200μl medium) in culture plates followed by incubation for 24h at 37 °C in humidified 5%CO2/95% air atmospheric conditions. The medium was removed; the compounds were added to the plates at 10 μM concentrations (in 0.1% DMSO) in triplicates, followed by incubation for 48h. DMSO (0.1%) was used as control. After incubation, medium was removed followed by the addition of PI (25 μl, 50μg/mL in water/medium) to each well of the plates. At - 80 °C, the plates were allowed to freeze for 24 h, followed by thawing at 25 °C. A fluorometer (Polar-Star BMG Tech) was used to record the readings at excitation and emission wavelengths of 530 and 620 nm for each well. The percentage cytotoxicity of compounds was calculated using […]
(§5) Where ATC= Absorbance of treated cells and AC= Absorbance of control. Erlotinib was used as positive control in the assay. […]

In a further series the test system is HT-29 (colon cancer). The series is described as follows: Antiproliferative assay, HT-29. The format is cell-based. As to conditions: Homo sapiens; HT-29 colon cancer cells; read-out: Antiproliferative activity IC50 ± SEM, HT-29.
Excerpt: as §1, §2, §3, §4, §5

Series [2] deals with four human cancer cell lines (A-549, MCF-7, Panc-1, HT-29). As to the kind of experiment: Antiproliferative assay, average over four cancer cell lines. As to conditions: for GI50: Homo sapiens, average IC50 across A-549, MCF-7, Panc-1, HT-29. The class given is cell-based. The procedure: The given findings were obtained from at least two distinct studies, each comprising three repeats per concentration. Appendix A (SI File) provides experimental details.[38,39] […]
as §3
To explore the antiproliferative potential of compounds propidium iodide fluorescence assay was performed using different cell lines such as Panc-1 (pancreas cancer cell line), MCF-7 (breast […]
respectively. To calculate the total nuclear DNA, a fluorescent dye (propidium iodide, PI) is used which can attach to the DNA, thus offering a quick and precise technique. PI cannot pass through the cell membrane and its signal intensity can be considered as directly proportional to quantity of cellular DNA. Cells whose cell membranes are damaged or have changed permeability are counted as dead ones. The assay was performed by seeding the cells of different cell lines at a density of 3000-7500 cells/well (in 200μl medium) in culture plates followed by incubation for 24h at 37 °C […]
The medium was removed; the compounds were added to the plates at 10 μM concentrations (in 0.1% DMSO) in triplicates, followed by incubation for 48h. DMSO (0.1%) was used as control. After incubation, medium was removed followed by the addition of PI (25 μl, 50μg/mL in water/medium) to each well of the plates. At - 80 °C, the plates were allowed to freeze for 24 h, followed by thawing at 25 °C. A fluorometer (Polar-Star BMG Tech) was used to record the readings at excitation and emission wavelengths of 530 and 620 nm for each well. The percentage cytotoxicity of compounds was calculated using […]
Where ATC= Absorbance of treated cells and AC= Absorbance of control. […]
positive control in the assay. […]

In a further series the test system is p53. As to the kind of experiment: p53 level assay in MCF-7 cells. The format is cell-based, human. The procedure: Compounds10k and 10l were tested as caspases-3, 8, 9, Bax and p53 activators and as down-regulators of the anti-apoptotic protein Bcl2 against the MCF-7 breast cancer cell line.[41] Appendix A gives more details.
P53's ability to eliminate superfluous, damaged, or contaminated cells by apoptosis is critical for the proper regulation of cell proliferation in multicellular organisms.[49] p53 is activated by both external and internal stress signals, allowing for nuclear accumulation in an active state. As a result, p53 induces either reversible cell growth arrest or apoptosis. The aforesaid activity is necessary for tumor suppression.[50]

For another series, the target named is VEGFR-2 (Homo sapiens, UniProt P35968). As to the kind of experiment: VEGFR-2 inhibitory assay.
VEGFR-2, sequence (P35968 20-1356): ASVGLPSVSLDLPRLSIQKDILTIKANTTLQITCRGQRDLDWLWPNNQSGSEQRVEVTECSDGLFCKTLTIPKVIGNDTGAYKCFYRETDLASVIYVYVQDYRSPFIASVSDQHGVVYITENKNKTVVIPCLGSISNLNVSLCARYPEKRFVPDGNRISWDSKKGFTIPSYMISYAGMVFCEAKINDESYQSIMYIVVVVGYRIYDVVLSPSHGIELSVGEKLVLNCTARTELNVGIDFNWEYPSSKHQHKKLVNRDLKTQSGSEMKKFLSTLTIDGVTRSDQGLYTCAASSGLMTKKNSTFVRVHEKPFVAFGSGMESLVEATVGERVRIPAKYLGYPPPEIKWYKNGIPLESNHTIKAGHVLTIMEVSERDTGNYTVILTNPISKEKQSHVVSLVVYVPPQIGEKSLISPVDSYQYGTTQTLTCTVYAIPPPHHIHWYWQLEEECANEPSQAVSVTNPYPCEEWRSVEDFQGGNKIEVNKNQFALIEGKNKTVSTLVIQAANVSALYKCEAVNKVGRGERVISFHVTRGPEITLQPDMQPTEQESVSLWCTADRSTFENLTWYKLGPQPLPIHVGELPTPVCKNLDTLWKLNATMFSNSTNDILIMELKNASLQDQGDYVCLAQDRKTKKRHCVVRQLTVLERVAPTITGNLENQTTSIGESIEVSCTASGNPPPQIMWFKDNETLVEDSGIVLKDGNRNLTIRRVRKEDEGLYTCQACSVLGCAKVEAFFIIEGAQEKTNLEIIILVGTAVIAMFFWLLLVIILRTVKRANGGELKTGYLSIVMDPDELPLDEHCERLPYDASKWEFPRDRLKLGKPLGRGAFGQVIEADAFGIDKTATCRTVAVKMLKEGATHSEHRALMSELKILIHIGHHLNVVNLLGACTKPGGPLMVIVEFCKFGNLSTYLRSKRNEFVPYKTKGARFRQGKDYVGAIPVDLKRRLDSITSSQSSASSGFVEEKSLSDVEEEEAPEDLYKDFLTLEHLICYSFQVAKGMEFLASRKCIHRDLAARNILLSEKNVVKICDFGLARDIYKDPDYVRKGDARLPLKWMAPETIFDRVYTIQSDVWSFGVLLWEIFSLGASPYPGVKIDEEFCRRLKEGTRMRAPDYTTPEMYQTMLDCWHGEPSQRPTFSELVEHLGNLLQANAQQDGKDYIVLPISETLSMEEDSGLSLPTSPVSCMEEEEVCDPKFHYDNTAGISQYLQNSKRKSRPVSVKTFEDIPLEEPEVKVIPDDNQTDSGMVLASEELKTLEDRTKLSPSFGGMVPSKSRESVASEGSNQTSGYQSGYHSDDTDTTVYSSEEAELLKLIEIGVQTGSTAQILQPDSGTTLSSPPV

Each structure is given as a SMILES string.

Procedure for VEGFR-2: The majority of signals detected by antiphosphotyrosine antibody were from EGFR because the enzyme preparation contained low impurities.
Prepare all the solutions using autoclaved, deionized water and analytical grade reagents. Prepare
and store all the reagents at room temperature (unless indicated otherwise). EDTA solution (0.5
M, pH 8.0): add 95 mL ultra-pure water to 14.612 g EDTA, adjust the pH to 8.0 using NaOH
solution, add 5 mL ultra-pure water; 1×Kinase Assay Buffer: add 25 mL HEPES solution (1 M),
water, adjust pH to 7.5 and constant volume to 500 mL using ultrapure water; 4×Stop solution (40
mM): Mix 0.8 mL of the foregoing EDTA solution, 1 mL 10×Detection Buffer and 8.2 mL ultra-
pure water; 1×Detection Buffer: Mix 1 mL 10×Detection Buffer with 9 mL water; 4×VEGFR
μM) was added to 624 μL 1×Kinase Assay Buffer and mixed; 4×ULight™-labeled JAK1
concentration 5 μM) was added to 576 μL 1×Kinase Assay Buffer and mixed; 4×ATP Solution
2×substrate/ATP Mix: 560 μL foregoing 4×ULight™-labeled JAK1 and 560 μL 4×ATP solution
and mixed (prepared before use). The assays used an ULight-labeled peptide substrate and a
Europium-W1024-labeled antiphosphotyrosine antibody. The VEGFR-2 was purchased from
Carna Biosciences, Inc. (New York, USA). The 384-well plates were obtained from PerkinElmer.
Compounds were dissolved in DMSO and diluted to 11 concentrations at a tripling rate from 2.500
5 μL 2×VEGFR-2 kinase solution (0.5 nM)
was added to 384-well plates homogeneous mixing and pre-reaction at room temperature for 30
min. Next, 2.5 μL 4×Ultra ULightTM-JAK-1(Tyr1023) Peptide (200 nM)/ATP (40 μM) was
added to the corresponding wells of a 384-well plate. Negative control: 2.5 μL/well 4×substrate/ATP mixture and 7.5 μL 1×kinase assay buffer in 384-well plate well. Positive control:
μL/well 2×VEGFR-2 kinase solution was added to the 384-well plate, The final concentration of DMSO in the mixing system was 4%. After incubation at room temperature and dark for 60 min, 5 μL 4×stop solution was added to corresponding wells to react for 5 min and then 5 μL 4×detection mix was added to the corresponding wells of a 384-well plate. The mixture was centrifugally mixed and stayed for 60 min at room temperature for color development. The plate
was read using an Envision plate reader. The inhibition rate (%) = (positive well reading-
compound well reading)/(positive well reading-negative well reading)×100. The corresponding IC50 values were calculated using GraphPad Prism 5.0.

As to `COc1ccc(-c2nc(SCc3nc(-c4ccc(Cl)cc4)no3)[nH]c(=O)c2C#N)cc1` [Compound 10k, 2-(((3-(4-Chlorophenyl)-1,2,4-oxadiazol-5-yl)methyl)thio)-4-(4-methoxyphenyl)-6-oxo-1,6-dihydropyrimidine-5-carbonitrile], the viability at 96 h, 50 µM in series [1] worked out at 90%. Moreover, the IC50 in the series on MCF-7 (breast cancer) stood at 20 ± 1 nM; with HT-29 (colon cancer) it was 23 ± 1 nM; on VEGFR-2, 21 ± 1 nM. The “Potency relative to erlotinib, MCF-7” value in the series on MCF-7 (breast cancer) (more potent than erlotinib) is “twice as potent”. Further, in series [2] (A-549, Panc-1, HT-29, greater potency than erlotinib), the “Potency relative to erlotinib, the other three cell lines” value came out at 1.3 fold. The molecule further had a GI50 in series [2] of 22 nM. The same molecule showed a p53 in the series on p53 of 330 ± 2 pg/mL.

`COc1ccc(-c2noc(CSc3nc(-c4ccc(OC)cc4)c(C#N)c(=O)[nH]3)n2)cc1` [Compound 10l, 2-(((3-(4-Methoxyphenyl)-1,2,4-oxadiazol-5-yl)methyl)thio)-4-(4-methoxyphenyl)-6-oxo-1,6-dihydropyrimidine-5-carbonitrile]: the viability at 96 h, 50 µM in series [1] was 91%. In addition, the half-inhibitory concentration (IC50) was 22 ± 1 nM in the series with MCF-7 (breast cancer), 28 ± 1 nM with HT-29 (colon cancer) and 26 ± 1 nM against VEGFR-2. Moreover, in series [2], it took 26 nM to inhibit growth by half (GI50). Besides, the p53 in the series with p53 turned out to be 285 ± 2 pg/mL.
